# Laboratory results: patent publication US20260191843A1, “METHODS AND MATERIALS FOR TREATING BURNS” (The Penn State Research Foundation, priority 2022, published 2026)
# Entries after “also recorded” stand apart in the source; their conditions may differ.
# How the values were obtained:
# [1] = system: deep-partial thickness burn wound on the mouse dorsum; experiment: Burn wound healing in mice: wound area and percentage of wound closure; assay type: in vivo, wild-type C57BL/6 mouse
# Method: (§1) Place the 8-10-week-old wild-type C57BL/6 mouse on its side on a sterile paper sheet. Anesthesia was achieved and maintained with isoflurane utilizing an induced with an intraperitoneal injection of ketamine (60 mg/kg) and xylazine (4 mg/kg). An adequate depth of anesthesia was ensured via lack of a withdrawal reflex when a toe pinch was performed. The depth of anesthesia was monitored as well as respiration and mucous membrane color (pink: normal, pale: blood loss, blue: cyanosis). The surgeon(s) used sterile gloves, mask and a clean lab coat. Sterile surgical instruments (autoclaved) were used during all survival surgeries. The skin was prepared for creation of wound on the dorsal and side skin (from neck to tail) by shaving with a mechanical shaver and then applying a hair removal cream on the skin for 3-5 minutes. Hair was removed completely by gently wiping the skin with cotton balls soaked in warm water. Skin disinfection around the incision site was done using 70% ethanol and betadine for 3 times. Then, the dorsal skin was folded and raised cranially and caudally at the midline using index fingers and thumbs, and the animal was placed in a lateral position. The burn wound was created by contacting a 10 mm diameter brass heating device maintained at 100° C. to the mouse dorsum at a constant pressure. The device remained in contact with the skin for 4 seconds in order to create a deep-partial thickness burn. After burn wound creation, the wound site was photographed, the wound area was circled using permanent pen marker, and the wound surface was covered with a TEGADERM™ (3M) sterile transparent dressing. After surgery, mice were given SR Buprenorphine (0.05 mg/kg) for post-operative analgesia. Then, mice were placed in a clean cage on the heating pad for 30 minutes to help the recovery process. Immediately after the recovery, mice were randomly grouped and treated with either with 4-AP (systemic, ip) or saline (control).
# Functional analysis of the burn wound area was performed by placing a transparent sheet on the surface of the circled wound, and placing a ruler close to the burn wound to capture photographs of individual wounds on 0, 3, 7, 10, 14, 18, 21, and 26 days. The wound size of each individual mice was measured and compared to zero day wound diameter from the circled sheet. The percentage of wound closure was calculated using this formula: (area of original wound-area of the actual burn wound)/area of original burn wound×100.
# [2] = system: deep-partial thickness burn wound on the mouse dorsum; experiment: Morphometric burn wound healing assessment at day 26 (H&E and Masson's trichrome staining); assay type: in vivo, wild-type C57BL/6 mouse
# Method: as §1, with “(control). […]” for “(control).”
# [3] = 4-AP treated vs saline-treated mice
structure (smiles),measurement,setting,value
"Nc1ccncc1 [4-AP, 4-aminopyridine]",acceleration of wound closure,"[1]; by day 3, systemic 4-AP vs saline, P between 0.01 and 0.05",significant increase in wound closure by day 3; also recorded: accelerated wound closure by day 3
same,closed wounds,"[1]; by day 26, systemic 4-AP",closed wounds by day 26
same,reduced wound area (relative to initial wound area),"[1]; day 5, systemic (ip) 4-AP, saline treated animals showed 25% expansion of wound area",5%
same,protection from expansion of wound size (necrosis and apoptosis at zone of stasis),[1]; systemic 4-AP vs saline,significant burn wound protection from expansion of wound; also recorded: significantly prevented expansion of wound size
same,burn wound closure and tissue regeneration as compared to control animals,[1]; systemic 4-AP vs systemic saline,improved burn wound closure and tissue regeneration
same,collagen deposition in the healing wound (Masson's Trichrome),[2]; [3],elevated collagen deposition
same,thickness of newly formed epidermis within the healed wound (H&E),[2]; [3],significantly thicker
same,re-epithelialization,[2]; not completed in saline-treated mice,re-epithelialization was complete
